Test results as given in EP2762573A1, “In vitro method for determining cholestatic properties of a compound” (priority 2013, dated 2014).

What was measured:
Details in all cases: male, C57BL/6, mouse
Bcl2l11 = assay: Biomarkers validation by q-pcr in precision cut liver slices: Bcl2l11 expression
Procedure: (§1) 23-weeks old male C57BL/6 mice were obtained from Harlan (Horst, The Netherlands). Animals were kept for 1 week at a housing temperature of 22°C and at a relative humidity of 30-70%. The lighting cycle was 12-h light and 12-h dark. At the age of 24 weeks animals were sacrificed by an overdose of isoflurane. The treatment protocol was approved by the Ethical Committee for Animal Experiments at Wageningen University.
(§2) Immediately after the animals were killed the liver was perfused with PBS and placed in ice-cold Krebs-Henseleit buffer (KHB) (pH 7.4, supplemented with 11 mM glucose). Liver tissue was transported to the laboratory within approximately 30 min and cylindrical liver cores were produced using a surgical biopsy punch with diameter of 5 mm (KAI, SynErgo Europe, Romania). Liver cores were placed in a Krumdieck tissue slicer (Alabama Research and Development, Munford, AL) filled with ice-cold KHB aerated with carbogen and supplemented with 11 mM glucose. Precesion cut liver slices (PCLS) with a diameter of 5 mm, a thickness of 0.2 mm and a weight of approximately 10 mg were prepared. Immediately after preparation, slices were transferred into culture plates filled with pre-warmed (37 degrees C) Williams E medium (WEM). Three liver slices were pre-cultured in one well of the 6-well plate filled with 4 ml of WEM for one hour with continuous shaking (70 rpm). Incubations were performed in an oxygen controlled incubator (Galaxy 48 R New Brunswick, Nijmegen, the Netherlands) at 80% of oxygen; 5% CO2 and the remaining gas volume was filled up to […] with N2. After one hour of pre-incubation, media were removed and replaced with fresh media containing test compounds or appropriate solvents. After incubations, samples were snap-frozen in liquid nitrogen and stored in -80 °C for further analysis. Samples dedicated to histology were stored in 4 % formaldehyde at room temperature.
(§3) PCLS were incubated at the same conditions as described above. Slices were exposed for 24 and 48 hours to one concentration of the tested compounds or controls. Concentrations used in the exposure experiments were preselected in the dose selection experiments for each drug individually. […] For the necrotic compounds: 1000 uM acetaminophen, 5 µM paraquat and 1000 uM isoniazid. Liver slices obtained from five mice were used in five toxic compound or control exposure experiments performed at the same time. Dose selection experiments and exposure experiments were performed at different days. Therefore, ATP, LDH, and protein assays were performed again for the exposure experiments to confirm that the selected doses did also not affect slice viability in these experiments.
(§4) In further studies, expression of ten candidate biomarkers in PCLS was analyzed by q-pcr using the Biorad CFX96 TM Real-Time Detection System (Bio-Rad, Veenendaal, The Netherlands) with the following cycling conditions: 15 min 95°C followed by 40 cycles of 15s 95 °C and 1 min 60 °C. Reactions were performed in 10 µl and contained 20 ng cDNA, 1x TaqMan PCR Master Mix (Applied Biosystems, Foster City, CA), and depending on the analysed gene, 250 nM probe and 900 nM primer (for actin b) or 1xTaqMan gene expression assay (for the remaining genes) (Applied Biosystems, foster City, CA).

Parp16 = assay: Biomarkers validation by q-pcr in precision cut liver slices: Parp16 expression
Procedure: as §1, §2, §3, §4

Mras = assay: Biomarkers validation by q-pcr in precision cut liver slices: Mras expression
Procedure: as §1, §2, §3, §4

Myo1e = assay: Biomarkers validation by q-pcr in precision cut liver slices: Myo1e expression
Procedure: as §1, §2, §3, §4

Nme6 = assay: Biomarkers validation by q-pcr in precision cut liver slices: Nme6 expression
Procedure: as §1, §2, §3, §4

ABCG5 = assay: Biomarkers validation by q-pcr in precision cut liver slices: ABCG5 expression
Procedure: as §1, §2, §3, §4

ABCG8 = assay: Biomarkers validation by q-pcr in precision cut liver slices: ABCG8 expression
Procedure: as §1, §2, §3, §4

SERPINE1 = assay: Biomarkers validation by q-pcr in precision cut liver slices: SERPINE1 expression
Procedure: as §1, §2, §3, §4

BAAT = assay: Biomarkers validation by q-pcr in precision cut liver slices: BAAT expression
Procedure: as §1, §2, §3, §4

KLF15 = assay: Biomarkers validation by q-pcr in precision cut liver slices: KLF15 expression
Procedure: as §1, §2, §3, §4

PCLS = assay: Cytotoxicity analysis - dose selection experiments (LDH, ATP, protein assay)
Procedure: as §1, §2, §3

NNC(=O)c1ccncc1 [ISONZ, isoniazid]
*fold change 1, gene expression level Bcl2111 (Bcl2l11): 1,9
*fold change 2, gene expression level Bcl2111 (Bcl2l11): 1,7
*fold change 3, gene expression level Bcl2111 (Bcl2l11): 1,3
*fold change 4, gene expression level Bcl2111 (Bcl2l11): -1,2
*fold change 5, gene expression level Bcl2111 (Bcl2l11): -1,2
*fold change 1, gene expression level Parp 16 (Parp16): -1,0
*fold change 2, gene expression level Parp 16 (Parp16): -1,0
*fold change 3, gene expression level Parp 16 (Parp16): 1,2
*fold change 4, gene expression level Parp 16 (Parp16): -2,3
*fold change 5, gene expression level Parp 16 (Parp16): -1,8
*fold change 1, gene expression level Mras (Mras): 1,7
*fold change 2, gene expression level Mras (Mras): -1,1
*fold change 3, gene expression level Mras (Mras): 1,3
*fold change 4, gene expression level Mras (Mras): -1,3
*fold change 5, gene expression level Mras (Mras): -1,3
*fold change 1, gene expression level Myo 1e (Myo1e): 1,5
*fold change 2, gene expression level Myo 1e (Myo1e): 1,3
*fold change 3, gene expression level Myo 1e (Myo1e): 1,3
*fold change 4, gene expression level Myo 1e (Myo1e): -1,3
*fold change 5, gene expression level Myo 1e (Myo1e): 1,1
*fold change 1, gene expression level Nme6 (Nme6): 1,3
*fold change 2, gene expression level Nme6 (Nme6): 1,2
*fold change 3, gene expression level Nme6 (Nme6): 1,1
*fold change 4, gene expression level Nme6 (Nme6): -1,3
*fold change 5, gene expression level Nme6 (Nme6): -1,1
*fold change 1, gene expression level ABCG5 (ABCG5): 2,0
*fold change 2, gene expression level ABCG5 (ABCG5): 3,0
*fold change 3, gene expression level ABCG5 (ABCG5): 1,1
*fold change 4, gene expression level ABCG5 (ABCG5): 2,0
*fold change 5, gene expression level ABCG5 (ABCG5): 2,0
*fold change 1, gene expression level ABCG8 (ABCG8): 2,1
*fold change 2, gene expression level ABCG8 (ABCG8): 2,8
*fold change 3, gene expression level ABCG8 (ABCG8): 1,0
*fold change 4, gene expression level ABCG8 (ABCG8): 2,3
*fold change 5, gene expression level ABCG8 (ABCG8): 1,9
*fold change 1, gene expression level SERPINE1 (SERPINE1): 5,4
*fold change 2, gene expression level SERPINE1 (SERPINE1): 1,9
*fold change 3, gene expression level SERPINE1 (SERPINE1): 1,4
*fold change 4, gene expression level SERPINE1 (SERPINE1): -1,4
*fold change 5, gene expression level SERPINE1 (SERPINE1): -2,9
*fold change 1, gene expression level BAAT (BAAT): 1,8
*fold change 2, gene expression level BAAT (BAAT): 1,7
*fold change 3, gene expression level BAAT (BAAT): 1,1
*fold change 4, gene expression level BAAT (BAAT): -1,3
*fold change 5, gene expression level BAAT (BAAT): 1,3
*fold change 1, gene expression level KLF15 (KLF15): 1,2
*fold change 2, gene expression level KLF15 (KLF15): 2,4
*fold change 3, gene expression level KLF15 (KLF15): 1,0
*fold change 4, gene expression level KLF15 (KLF15): 1,1
*fold change 5, gene expression level KLF15 (KLF15): 1,2
highest concentration that did not cause significant increase of toxicity (PCLS): 1000 µM

CCCC(CCC)C(=O)O [VA, valproic acid]
highest concentration that did not cause significant increase of toxicity (PCLS): 200 µM

CN(C)CCCN1c2ccccc2Sc2ccc(Cl)cc21 [CPZ, chlorpromazine]
*fold change 1, gene expression level Bcl2111 (Bcl2l11): -1,2
*fold change 2, gene expression level Bcl2111 (Bcl2l11): -1,4
*fold change 3, gene expression level Bcl2111 (Bcl2l11): -1,2
*fold change 4, gene expression level Bcl2111 (Bcl2l11): -1,9
*fold change 5, gene expression level Bcl2111 (Bcl2l11): -2,3
*fold change 1, gene expression level Parp 16 (Parp16): -1,1
*fold change 2, gene expression level Parp 16 (Parp16): -1,4
*fold change 3, gene expression level Parp 16 (Parp16): -1,1
*fold change 4, gene expression level Parp 16 (Parp16): -1,4
*fold change 5, gene expression level Parp 16 (Parp16): -1,0
*fold change 1, gene expression level Mras (Mras): 1,3
*fold change 2, gene expression level Mras (Mras): 2,0
*fold change 3, gene expression level Mras (Mras): 2,6
*fold change 4, gene expression level Mras (Mras): 1,4
*fold change 5, gene expression level Mras (Mras): 1,1
*fold change 1, gene expression level Myo 1e (Myo1e): -1,1
*fold change 2, gene expression level Myo 1e (Myo1e): -1,0
*fold change 3, gene expression level Myo 1e (Myo1e): 1,1
*fold change 4, gene expression level Myo 1e (Myo1e): 1,0
*fold change 5, gene expression level Myo 1e (Myo1e): -1,1
*fold change 1, gene expression level Nme6 (Nme6): 1,1
*fold change 2, gene expression level Nme6 (Nme6): 1,3
*fold change 3, gene expression level Nme6 (Nme6): 1,7
*fold change 4, gene expression level Nme6 (Nme6): 1,3
*fold change 5, gene expression level Nme6 (Nme6): 1,2
*fold change 1, gene expression level ABCG5 (ABCG5): -4,2
*fold change 2, gene expression level ABCG5 (ABCG5): -2,9
*fold change 3, gene expression level ABCG5 (ABCG5): -6,7
*fold change 4, gene expression level ABCG5 (ABCG5): -3,8
*fold change 5, gene expression level ABCG5 (ABCG5): -1,0
*fold change 1, gene expression level ABCG8 (ABCG8): -2,9
*fold change 2, gene expression level ABCG8 (ABCG8): -2,1
*fold change 3, gene expression level ABCG8 (ABCG8): -5,4
*fold change 4, gene expression level ABCG8 (ABCG8): -4,5
*fold change 5, gene expression level ABCG8 (ABCG8): -1,1
*fold change 1, gene expression level SERPINE1 (SERPINE1): 2,9
*fold change 2, gene expression level SERPINE1 (SERPINE1): -1,4
*fold change 3, gene expression level SERPINE1 (SERPINE1): -4,7
*fold change 4, gene expression level SERPINE1 (SERPINE1): -5,8
*fold change 5, gene expression level SERPINE1 (SERPINE1): -1,8
*fold change 1, gene expression level BAAT (BAAT): -2,3
*fold change 2, gene expression level BAAT (BAAT): -3,3
*fold change 3, gene expression level BAAT (BAAT): -8,5
*fold change 4, gene expression level BAAT (BAAT): -6,4
*fold change 5, gene expression level BAAT (BAAT): 1,4
*fold change 1, gene expression level KLF15 (KLF15): -2,0
*fold change 2, gene expression level KLF15 (KLF15): -1,8
*fold change 3, gene expression level KLF15 (KLF15): -3,2
*fold change 4, gene expression level KLF15 (KLF15): -1,8
*fold change 5, gene expression level KLF15 (KLF15): 1,6
highest concentration that did not cause significant increase of toxicity (PCLS): 10 µM
